According to ChEMBL document CHEMBL1201862, “PubChem BioAssay data set” (2004):
The source made the active and inactive calls.

Legend:
Caspase-3 = biological target: T1, Caspase-3 (Homo sapiens, UniProt P42574); assay type: functional;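 also: Dose-response selectivity test against caspase-3 for candidate inhibitors of sentrin-specific proteases (SENPs)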
T1 sequence (P42574 whole entry): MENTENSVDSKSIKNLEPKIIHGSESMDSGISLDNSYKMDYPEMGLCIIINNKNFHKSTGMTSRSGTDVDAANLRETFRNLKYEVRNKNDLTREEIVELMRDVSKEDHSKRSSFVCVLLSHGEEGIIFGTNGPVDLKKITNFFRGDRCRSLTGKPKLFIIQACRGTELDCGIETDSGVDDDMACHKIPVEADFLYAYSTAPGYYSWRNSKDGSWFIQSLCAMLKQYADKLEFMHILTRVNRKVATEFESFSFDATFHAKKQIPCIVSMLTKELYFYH

[1] = biological target: T2, Sentrin-specific protease 6 (Homo sapiens, UniProt Q9GZR1); assay type: functional;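 also: Luminescence-based dose-response confirmatory assay of SENP6 inhibition, following up an ultra-high-throughput screen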
T2 sequence (Q9GZR1 whole entry): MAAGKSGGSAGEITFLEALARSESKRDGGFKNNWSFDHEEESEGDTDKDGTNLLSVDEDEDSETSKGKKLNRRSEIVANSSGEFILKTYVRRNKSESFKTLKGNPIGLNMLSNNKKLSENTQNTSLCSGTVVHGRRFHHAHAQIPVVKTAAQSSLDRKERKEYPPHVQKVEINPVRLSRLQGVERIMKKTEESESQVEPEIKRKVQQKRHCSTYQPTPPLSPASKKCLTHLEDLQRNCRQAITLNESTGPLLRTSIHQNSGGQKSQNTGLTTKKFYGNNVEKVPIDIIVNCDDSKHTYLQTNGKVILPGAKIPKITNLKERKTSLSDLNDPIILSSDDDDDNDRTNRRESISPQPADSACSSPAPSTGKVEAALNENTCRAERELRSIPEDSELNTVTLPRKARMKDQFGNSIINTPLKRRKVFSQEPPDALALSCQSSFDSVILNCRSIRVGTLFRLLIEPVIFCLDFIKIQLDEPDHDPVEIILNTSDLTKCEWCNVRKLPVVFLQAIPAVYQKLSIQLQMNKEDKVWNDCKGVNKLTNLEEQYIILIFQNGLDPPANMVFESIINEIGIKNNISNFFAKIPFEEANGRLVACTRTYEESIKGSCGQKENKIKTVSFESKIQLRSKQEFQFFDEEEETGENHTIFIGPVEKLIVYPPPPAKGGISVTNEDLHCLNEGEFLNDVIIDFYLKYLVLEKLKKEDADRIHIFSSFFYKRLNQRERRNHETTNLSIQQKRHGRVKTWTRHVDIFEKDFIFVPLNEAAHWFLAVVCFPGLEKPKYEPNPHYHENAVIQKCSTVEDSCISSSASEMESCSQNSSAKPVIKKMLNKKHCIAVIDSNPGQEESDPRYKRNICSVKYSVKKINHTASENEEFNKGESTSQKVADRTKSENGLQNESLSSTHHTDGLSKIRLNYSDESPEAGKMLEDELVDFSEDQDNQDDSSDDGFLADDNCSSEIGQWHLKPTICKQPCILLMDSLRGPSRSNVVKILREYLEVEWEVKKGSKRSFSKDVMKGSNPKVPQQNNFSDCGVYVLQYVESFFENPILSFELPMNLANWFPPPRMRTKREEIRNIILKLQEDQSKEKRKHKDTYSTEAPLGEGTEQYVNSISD

[2] = biological target: T3, Sentrin-specific protease 7 (Homo sapiens, UniProt Q9BQF6); assay type: functional;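 also: Luminescence-based dose-response confirmation of ultra-high-throughput screening hits, measuring inhibition of SENP7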
T3 sequence (Q9BQF6 whole entry): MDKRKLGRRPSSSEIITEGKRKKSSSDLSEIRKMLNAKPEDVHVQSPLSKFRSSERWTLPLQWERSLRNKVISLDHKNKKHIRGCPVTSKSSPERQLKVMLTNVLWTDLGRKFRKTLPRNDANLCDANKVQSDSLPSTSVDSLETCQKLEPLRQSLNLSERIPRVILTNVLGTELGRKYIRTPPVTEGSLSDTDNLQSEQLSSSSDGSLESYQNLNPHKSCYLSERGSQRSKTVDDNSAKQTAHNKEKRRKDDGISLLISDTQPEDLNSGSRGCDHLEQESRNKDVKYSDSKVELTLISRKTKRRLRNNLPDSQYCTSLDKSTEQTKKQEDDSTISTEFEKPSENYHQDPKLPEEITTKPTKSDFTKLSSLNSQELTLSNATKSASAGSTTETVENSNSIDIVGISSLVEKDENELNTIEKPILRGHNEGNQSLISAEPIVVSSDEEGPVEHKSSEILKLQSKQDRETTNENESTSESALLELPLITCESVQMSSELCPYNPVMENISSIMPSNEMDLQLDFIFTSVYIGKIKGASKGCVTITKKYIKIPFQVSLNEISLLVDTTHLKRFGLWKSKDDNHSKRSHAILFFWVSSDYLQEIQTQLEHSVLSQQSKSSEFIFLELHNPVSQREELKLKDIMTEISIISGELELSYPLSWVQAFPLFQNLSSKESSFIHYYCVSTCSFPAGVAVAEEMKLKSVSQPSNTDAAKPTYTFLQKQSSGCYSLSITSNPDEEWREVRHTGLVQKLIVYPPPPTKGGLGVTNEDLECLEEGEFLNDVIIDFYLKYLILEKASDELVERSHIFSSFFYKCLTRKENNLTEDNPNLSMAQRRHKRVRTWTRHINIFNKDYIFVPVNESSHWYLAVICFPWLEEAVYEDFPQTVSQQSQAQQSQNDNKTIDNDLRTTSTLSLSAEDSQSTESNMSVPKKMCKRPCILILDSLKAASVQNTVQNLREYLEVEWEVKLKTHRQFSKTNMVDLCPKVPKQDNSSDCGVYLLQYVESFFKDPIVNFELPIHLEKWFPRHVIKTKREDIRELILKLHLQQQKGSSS

[3] = biological target: T4, Sentrin-specific protease 8 (Homo sapiens, UniProt Q96LD8); assay type: functional;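 also: luminescence read-out of SENP8 inhibition, dose-response confirmation following an ultra-high-throughput screen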
T4 sequence (Q96LD8 whole entry): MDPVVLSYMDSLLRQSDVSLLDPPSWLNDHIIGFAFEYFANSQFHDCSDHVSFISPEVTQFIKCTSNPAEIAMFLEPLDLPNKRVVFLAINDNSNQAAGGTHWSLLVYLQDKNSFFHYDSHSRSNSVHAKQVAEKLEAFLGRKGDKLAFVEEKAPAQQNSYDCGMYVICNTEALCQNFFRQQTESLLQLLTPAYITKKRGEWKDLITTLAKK

[4] = reduction of Shn3 3'UTR-driven luciferase in osteoblasts – cell-based, Clone20 osteoblasts, firefly luciferase, cherry-picked, dose response (AID 624132); assay type: functional;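 also: firefly luciferase luminescence from reporter carrying the Shn3 3'UTR in osteoblasts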
[5] = non-specific 3'UTR reporter inhibition in Clone20-Shn3RL – cell-based, Renilla luciferase, cherry-picked, counter-screen for Shn3 inhibitor project, dose response (AID 624133); assay type: functional
[6] = loss of viability in HepG2 cells – cell-based, CellTiter-Glo, cherry-picked, cytotoxicity control for Shn3 inhibitor project, dose response (AID 624134); assay type: functional
Streptococcus = experiment: GAS UMAA2166 growth inhibition – luminescence, BacTiterGlo, counter-screen for streptokinase expression inhibitor project, dose response (AID 1915); assay type: functional, organism-based;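 also: potency for reduction of bacterial viability or growth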
[7] = tested on: Streptococcus sp. 'group A'; experiment: Streptococcus pyogenes SK(-)GAS viability under kanamycin – luminescence, BacTiterGlo, confirmation, counter-screen for streptokinase expression inhibitor project, dose response (AID 1900); assay type: functional, organism-based
Streptokinase A = biological target: T5, Streptokinase A (Streptococcus pyogenes serotype M1, UniProt P10520); experiment: viability-normalized secreted streptokinase activity reduction – plasminogen activation absorbance, OD405, dose response (AID 1914); assay type: functional, Streptococcus pyogenes M1 GAS;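 also: secreted streptokinase activity via plasminogen activation per viability signal from cell pellet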
T5 sequence (P10520 whole entry): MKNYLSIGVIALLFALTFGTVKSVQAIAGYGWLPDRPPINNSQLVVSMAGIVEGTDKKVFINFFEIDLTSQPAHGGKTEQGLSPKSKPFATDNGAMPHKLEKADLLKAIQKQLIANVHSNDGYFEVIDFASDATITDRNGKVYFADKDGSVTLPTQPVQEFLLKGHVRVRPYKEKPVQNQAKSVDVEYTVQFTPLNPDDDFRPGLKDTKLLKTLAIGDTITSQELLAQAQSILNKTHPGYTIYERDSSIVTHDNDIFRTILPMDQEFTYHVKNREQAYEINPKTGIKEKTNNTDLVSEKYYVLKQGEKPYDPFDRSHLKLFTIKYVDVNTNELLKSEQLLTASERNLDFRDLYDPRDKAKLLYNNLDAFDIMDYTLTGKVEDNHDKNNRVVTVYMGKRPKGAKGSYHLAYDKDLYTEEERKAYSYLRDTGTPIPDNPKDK

BJ [8] = experiment: growth inhibition of engineered Ras-driven BJ cells – cell-based, alamar blue fluorescence, cherrypicked samples, dose response (AID 2631); assay type: functional; conditions: Homo sapiens;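 also: confirmatory dose-response assay in RAS-dependent BJ fibroblasts engineered with TERT, LT and ST, with cytotoxicity read by fluorescence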
BJ [9] = experiment: BJ-TERT-LT-ST fibroblast viability loss – cell-based, RAS-independent, luminescence, dose response (AID 1935); assay type: functional; conditions: Homo sapiens;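 also: BJ fibroblasts immortalized with TERT plus LT and ST oncogenes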
[10] = Luminescence Cell-Based Dose Response HTS to Identify Inhibitors of 5'UTR Stem-Loop Driven Prion Protein mRNA Translation in H4 Neuroglioblastoma Cells. [Related pubchem assays: 1827 (Project Summary), 1813 (Primary HTS)]; assay type: functional
BJ [11] = experiment: BJ-TERT fibroblast viability loss – cell-based, RAS-independent, luminescence, dose response (AID 1933); assay type: functional; conditions: Homo sapiens
[12] = alpha-synuclein stem-loop luciferase translation blockers – H4 neuroglioma cells, luminescence, confirmation (AID 1988); assay type: functional, cell-based
BJ [13] = experiment: cells; assay type: functional, cell-based; conditions: Homo sapiens
[14] = luciferase reporter signal suppression in cells – H4 neuroglioma cells, luminescence, dose response (AID 1990); assay type: functional, cell-based
[15] = DRD fibroblast viability loss – cell-based, non-viral oncogenic, luminescence, dose response (AID 1934); assay type: functional; conditions: Homo sapiens
[16] = HIV-1 AD8 envelope cell-cell fusion blockers – cherry-pick, dose response (AID 652062); assay type: functional, cell-based;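 also: luciferase signal from cell-cell fusion driven by HIV-1 clade B AD8 Env; potency is for inhibitors of fusion seen as a drop in luminescence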
[17] = toxicity toward HepG2 liver cells – cell-based, plate reader, cherry-pick, antagonist series, cytotoxicity control, dose response (AID 743416); assay type: functional
[18] = A549 cell cytotoxicity, dose response, cytotoxicity control, plate reader, cherry-pick, antagonist series (AID 743412); assay type: functional, cell-based
[19] = viability loss in HEK293 cells – cell-based, plate reader, cherry-picked samples, cytotoxicity control, dose response (AID 743446); assay type: functional
[20] = blockade of melanocortin 4 receptor signaling – cell-based, plate reader, cherry pick, counter-screen for LGR2 antagonist project, dose response (AID 743444); assay type: functional;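 also: transfected HEK 293 cells stimulated with alpha-MSH peptide; potency of inhibitors of the alpha-MSH evoked signal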
[21] = blockers of bursicon-stimulated LGR2 cAMP reporter – cell-based, HEK293, CRE-luciferase reporter, cherry pick, set 2, dose response (AID 743343); assay type: functional;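 also: transfected cells were stimulated with diluted bursicon conditioned medium after compound addition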

| Structure (SMILES) | IC50 (Caspase-3) | IC50 [1] | IC50 [2] | IC50 [3] | AC50 [4] | AC50 [5] | AC50 [6] | also measured |
| --- | --- | --- | --- | --- | --- | --- | --- | --- |
| N#Cc1ccsc1NC(=O)CSc1nnnn1-c1ccc(O)cc1 | 20.6 µM (active) | 30.5 µM (active) | 10.3 µM (active) | 36.8 µM (active) | – | – | – | – |
| COc1ccc(NC(=O)CSc2ncccc2C(=O)OC(C)C)cc1OC | – | – | – | – | 4.1 µM (active) | 1.54 µM (active) | 41.9 µM (active) | – |
| COc1ccc(-c2nc(NC(=O)C3CC(=O)N(c4ccc5c(c4)OCCO5)C3)sc2C)cc1 (stereo not given) | – | – | – | – | 5.24 µM (active) | 13.4 µM (active) | 47.3 µM (active) | EC50 (Streptococcus): 63.6 µM (active); EC50 [7]: 21.7 µM (active); EC50 (Streptokinase A): > 150 µM (not active) |
| CCOc1ccc(CC(=O)Nc2ccc(NC(=O)c3ccco3)cc2)cc1OCC | – | – | – | – | – | – | – | EC50 (BJ [8]): > 66.7 µM (inactive); EC50 (BJ [9]): 9.89 µM (inconclusive); EC50 [10]: 6.05 µM (active); EC50 (BJ [11]): > 150 µM (not active); EC50 [12]: 8.44 µM (active); EC50 (BJ [13]): 2.55 µM (active); EC50 [14]: 11 µM (active); EC50 [15]: > 150 µM (not active) |
| CCN(C(=O)C1CCN(c2nc(-c3ccc(OC)cc3)no2)CC1)c1ccc(OC)cc1 | – | – | – | – | 3.17 µM (active) | 11.8 µM (active) | 62.5 µM (active) | – |
| Cc1cccc(-n2ncc3c(N4CCC(C)CC4)ncnc32)c1 | 19.5 µM (active) | 21.9 µM (active) | 7.97 µM (active) | 27.9 µM (active) | – | – | – | – |
| CC(=O)c1ccccc1OCCOCCOCCOc1ccccc1C(C)=O | – | – | – | – | – | – | – | EC50 (BJ [8]): > 133 µM (inactive); EC50 (BJ [9]): > 150 µM (inconclusive); EC50 (BJ [11]): 27 µM (active); EC50 [12]: > 120 µM (not active); EC50 (BJ [13]): > 150 µM (not active); EC50 [14]: > 120 µM (not active); EC50 [15]: > 150 µM (not active) |
| O=C(CSc1ccccn1)NCc1ccc2c(c1)OCO2 | – | – | – | – | – | – | – | EC50 (BJ [8]): > 133 µM (inactive) |
| CC1CN(S(=O)(=O)c2cc(C(=O)NCCC3=CCCCC3)ccc2Cl)CC(C)O1 (stereo not given) | – | – | – | – | – | – | – | AC50 [16]: 7.96 µM (active) |
| Oc1nc2ccccc2n1C1CCN(C(c2cccs2)c2nnnn2Cc2ccccc2)CC1 (stereo not given) | – | – | – | – | 2.98 µM (active) | 6.11 µM (active) | > 70 µM (inactive) | AC50 [17]: 44.4 µM (active); AC50 [18]: 13.7 µM (active); AC50 [19]: 29.8 µM (active); AC50 [20]: 1.76 µM (active); AC50 [21]: 2.74 µM (active) |
| C/C(=N\Nc1ccc([N+](=O)[O-])cc1)c1ccco1 | 18.4 µM (active) | 10.6 µM (active) | 6.51 µM (active) | 73.8 µM (active) | – | – | – | – |
| C/C(=N\OC(=O)c1ccc(Br)cc1)c1ccccn1 | 1.26 µM (active) | 1.31 µM (active) | 1.01 µM (active) | 2.43 µM (active) | – | – | – | – |
| COc1cccc(C(=O)Oc2ccc(/C=N/Nc3ccc(C(=O)O)cc3)cc2OC)c1 | 74.2 µM (active) | 14.3 µM (active) | 12.3 µM (active) | 17.1 µM (active) | – | – | – | EC50 (Streptococcus): 19 µM (active); EC50 [7]: 5 µM (active); EC50 (Streptokinase A): > 150 µM (not active) |
